Test results: paper PMC6274350, “Design, Synthesis, and Cytotoxicity of 5-Fluoro-2-methyl-6-(4-aryl-piperazin-1-yl) Benzoxazoles” (Molecules, 2016)

Key:
[1] = CellTiter-Glo luminescent cell viability (cytotoxicity) assay on hepatocytes; format: cell-based, human; conditions: human, Liver cells, hepatocytes (HepaRG), 24 h, vs DMSO vehicle
Procedure: (§1) The cytotoxicity of prepared benzoxazoles (7a–j) and intermediates (6a–j and 9) were measured by applying the CellTiter-Glo® luminescent cell proliferation assay (G755A, Promega, Madison, WI, USA). This method permits the determination of viable cells numbers in the culture based on quantitation of the ATP present, which denotes the presence of metabolically active cells. In vitro cytotoxicity analysis was overall performed following the protocol as described in “Guidance Document on Using in Vitro Data to Estimate in Vivo Starting Doses for Acute Toxicity Based on Recommendations” [18]. Human A-549 cells are human lung cancer epithelial cells, which were chosen as the tumor model, whereas the HepaRG™ cell line is a classic hepatic cell line that retains many characteristics of primary human hepatocytes. HepaRG™ cells are terminally differentiated.
(§2) Human cell cultures: Hepatocytes (HepaRG^TM cells) were obtained from Life Technologies, and were cultivated in William’s E Medium (Gibco, Life Technologies, Waltham, MA, USA) and supplemented with 1x GlutaMAX™ plus 1x HepaRG^TM General Purpose Medium Supplement in 25-cm^2 or 75-cm^2 flasks (TPP, Trasadingen, Switzerland) at 37 °C and 5% CO2. Lung cancer epithelial cells A-549 were propagated in Epilife Medium (Gibco, Life Technologies; MEPICF) and combined with CaCl2 and 1x-growth-supplement containing penicillin and streptomycin (Gibco, Life Technologies). For sub-culturing, cells were split at a ratio of 1:4 to 1:8. For cryopreservation, cells were frozen in 10% DMSO in liquid nitrogen.
(§3) Human cytotoxicity assay: Human hepatocytes or human lung carcinoma cells were seeded into sterile black clear-bottomed polystyrene Corning® CellBind® 96-well plates (Munich, Germany) at a density of 20,000 cells/well after calculating cell numbers from trypsinized samples in a classical Neubauer Improved hemocytometer (VWR, Munich, Germany). The cells were grown for 24 h at 37 °C in a 5% CO2 atmosphere in Epilife medium (keratinocytes) or William′s E medium (hepatocytes). After a 24-h recovery period, media were removed from the wells by aspiration. The cells were then immediately exposed to the respective test compounds or reference antibiotics (prepared in advance in 100 µL of the same media) for 24 h 37 °C with 5% CO2. The concentration tested ranged from 0.1 µM to 500 µM (0.1 µM, 1 µM, 10 µM, 50 µM, 100 µM, 250 µM, and 500 µM) and was formulated as a 100× concentrated stock each, resulting in a final constant DMSO concentration of 1% per 100-µL sample volume. Test series were each performed in triplicate, and additionally included a vehicle reference (DMSO only) plus another internal control for evaluating overall assay performance. Additionally, cells were visually examined under a light microscope for any morphological abnormalities relative to the untreated cells. Subsequently, cell viability, as an indicator of potential cytotoxicity, was measured by applying the CellTiter-Glo® luminescent cell proliferation assay (G755A, Promega, Madison, WI, USA). This method permits the determination of the number of viable cells in culture based on quantitation of the ATP present, which denotes the presence of metabolically active cells. To this end, 100 µL (equal to the volume of culture medium) of the kit-provided CellTiter-Glo® reagent (reconstituted by transferring the thawed CellTiter-Glo® buffer to the lyophilized enzyme and substrate mixture) was directly added to each well with a repetitive dispensing pipette. The contents were then mixed for 2 min at room temperature on an orbital minishaker (IKA® MS3 digital, Staufen, Germany) at 450 rpm to induce efficient cell lysis, and then further incubated for 10 min at room temperature for stabilization of the resultant luminescent signal. […]

[2] = tested on: HepaRG cells (liver cells, hepatocytes); experiment: as above; format: cell-based, human; conditions: for Toxicity to healthy cells versus lung cancer cells: 50 µM, HepaRG vs A-549
Procedure: as §1, §2, §3

[3] = tested on: A-549 lung carcinoma cells; experiment: CellTiter-Glo luminescent cell viability (cytotoxicity) assay on lung cancer cells; format: cell-based, human; conditions: for viability at 0.1 µM / viability at 1 µM / viability at 10 µM / viability at 50 µM / viability at 100 µM / viability at 250 µM / viability at 500 µM: Homo sapiens, A549, Lung cancer cells (A-549), 24 h, vs DMSO vehicle
Procedure: as §1, §2, §3

[4] = Visible solubility / precipitation of test compounds in cell-culture media; format: physicochemical; conditions: for Solubility at test concentrations: cell-culture media, 0.1-500 µM; for Precipitation in cell-culture media: 50 µM, no conclusion on cytotoxicity possible
Procedure: Since the majority of test compound solutions with concentrations above 50 µM precipitated in cell-culture media, we performed cytotoxicity assays for healthy and cancer cells at 50 µM.

Structure (SMILES) | viability at 24 h, 0.1 µM [1] | viability at 24 h, 1 µM [1] | viability at 24 h, 10 µM [1] | viability at 24 h, 50 µM [1] | viability at 24 h, 100 µM [1] | viability at 24 h, 250 µM [1] | viability at 24 h, 500 µM [1] | viability at 0.1 µM [3] | viability at 1 µM [3] | viability at 10 µM [3] | viability at 50 µM [3] | viability at 100 µM [3] | viability at 250 µM [3] | melting point | Precipitation in cell-culture media [4] | further results
O=[N+]([O-])c1cc(F)c(N2CCN(c3ccc(F)cc3)CC2)cc1O [Compound 6d, 4-Fluoro-5-[4-(4-fluoro-phenyl)-piperazin-1-yl]-2-nitro-phenol] | 94% | 87% | 101% | 57% | 62% | 44% | 13% | 103% | 111% | 78% | 58% | 54% | 46% | 151 to 152 °C |  | CT50 ([2]; hepatocytes (HepaRG), equal toxicity to both cell lines): ~ 50 µM; CT50 ([3]; A-549 lung cancer cells, equal toxicity to both cell lines): ~ 50 µM; viability at 500 µM [3]: 34%; Solubility at test concentrations [4]: completely soluble at all concentrations
Cc1ccc(N2CCN(c3cc4oc(C)nc4cc3F)CC2)cc1 [Compound 7b, 5-Fluoro-2-methyl-6-(4-p-tolyl-piperazin-1-yl)-benzooxazole] | 105% | 99% | 91% | 63% | 60% |  |  | 92% | 94% | 92% | 87% | 75% |  | 168 to 170 °C |  | Toxicity to healthy cells versus lung cancer cells [2]: more toxic to healthy cells compared with lung cancer cells
Cc1nc2cc(F)c(N3CCN(c4ccccc4O)CC3)cc2o1 [Compound 7f, 2-[4-(5-Fluoro-2-methyl-benzooxazol-6-yl)-piperazin-1-yl]-phenol] | 106% | 97% | 86% | 59% | 60% | 53% | 54% | 103% | 99% | 91% | 91% | 95% | 83% | 172 to 173 °C |  | viability at 500 µM [3]: 63%; Solubility at test concentrations [4]: completely soluble at all concentrations
Cc1nc2cc(F)c(N3CCN(c4ccccc4F)CC3)cc2o1 [Compound 7g, 5-Fluoro-6-(4-(2-fluorophenyl)-piperazin-1-yl)-2-methylbenzo[d]oxazole] | 96% | 106% | 87% |  |  |  |  | 96% | 92% | 92% | 73% | 63% |  | 157 to 158 °C | precipitation problem | 
Cc1nc2cc(F)c(N3CCN(c4cccc(O)c4)CC3)cc2o1 [Compound 7h, 3-[4-(5-Fluoro-2-methyl-benzooxazol-6-yl)-piperazin-1-yl]-phenol] | 100% | 102% | 99% |  |  |  |  | 100% | 93% | 97% | 95% | 90% |  | 211 to 213 °C | precipitation problem | 
COc1cccc(N2CCN(c3cc4oc(C)nc4cc3F)CC2)c1 [Compound 7i, 5-Fluoro-6-[4-(3-methoxy-phenyl)-piperazin-1-yl]-2-methyl-benzooxazole] | 100% | 102% | 91% |  |  |  |  | 105% | 102% | 88% | 76% | 75% |  | 124 to 125 °C | precipitation problem | 
Cc1nc2cc(F)c(N3CCN(c4ccc(Cl)c(Cl)c4)CC3)cc2o1 [Compound 7j, 6-[4-(3,4-Dichloro-phenyl)-piperazin-1-yl]-5-fluoro-2-methyl-benzooxazole] | 100% | 90% | 85% | 65% | 27% | 7% | 7% | 98% | 94% | 81% | 70% | 47% | 28% | 147 to 148 °C | precipitation problem | Toxicity to healthy cells versus lung cancer cells [2]: more toxic to healthy cells compared with lung cancer cells
COc1cccc2c1C(=O)c1c(O)c3c(c(O)c1C2=O)C[C@@](O)(C(=O)CO)C[C@@H]3O[C@H]1C[C@H](N)[C@H](O)[C@H](C)O1 [doxorubicine, reference compound] |  |  |  |  |  |  |  |  |  |  |  |  |  |  |  | IC50 ([2]; Homo sapiens, HepaRG cells, standard): 5.1 µM
